Source: patent publication US9101638B2, “Boronic acid derivatives and therapeutic uses thereof” (Rempex Pharmaceuticals, Inc., priority 2013, dated 2015)

Columns and labels:
[1] = system: KP1005 (CTX-M-14); assay: Potentiation of aztreonam, strain KP1005; format: cell-based
[2] = system: PAM1154/KPC-2; assay: Biapenem potentiation in PAM1154/KPC-2 (MexAB-OprM lacking); format: cell-based, Pseudomonas aeruginosa
Procedure: Efflux of BLIs from Pseudomonas aeruginosa by the MexAB-OprM efflux pump was also evaluated. […] Due to expression of KPC-2 both strains became resistant to biapenem. […] Potency of BLIs to potentiate biapenem in these strains was determined. […] The ratio of MPC64 values for each BLI in PAM1032/KPC-2 (efflux proficient) and PAM1154/KPC-2 (efflux deficient) was determined to generate the Efflux Index (EI).

[3] = system: ec308 (SHV-5); assay: Potentiation of tigemonam, strain ec308; format: cell-based; settings: minimum BLI concentration inhibiting growth with 4 μg/mL tigemonam
[4] = target: T1, Chymotrypsin (Bos taurus, UniProt P00766); assay: Serine protease inhibition: chymotrypsin; format: biochemical, mammalian; settings: Table 8A, class symbols; read-out: IC50 Chymotrypsin
T1 construct: purchased Calbiochem 230832
Method in brief: (§1)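 Enzyme + inhibitor (various concns), enzyme-specific buffer, 10 min, 37° C; add matching substrate; read absorbance/fluorescence 30 min. Rates vs no-treatment control. AEBSF, leupeptin as positive controls.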

[5] = target: T2, Neutrophil elastase (Homo sapiens, UniProt P08246); assay: Serine protease inhibition: neutrophil elastase; format: biochemical, mammalian; settings: Table 8B; read-out: IC50 Neutrophil elastase
T2 construct: purchased Calbiochem 324681
T2 sequence (P08246 30-267): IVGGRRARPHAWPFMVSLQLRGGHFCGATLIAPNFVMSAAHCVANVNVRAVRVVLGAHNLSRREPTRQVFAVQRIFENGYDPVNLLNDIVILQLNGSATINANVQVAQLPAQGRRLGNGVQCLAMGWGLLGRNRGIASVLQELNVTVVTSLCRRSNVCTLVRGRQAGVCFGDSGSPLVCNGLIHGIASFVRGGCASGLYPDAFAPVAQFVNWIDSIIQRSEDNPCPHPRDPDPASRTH
Method in brief: as §1

[6] = target: T3, Chymase (Homo sapiens, UniProt P23946); assay: Serine protease inhibition: chymase; format: biochemical, mammalian; settings: Table 8A, class symbols; read-out: IC50 Chymase
T3 construct: purchased Enzo Lifescience BML-SE281
T3 sequence (P23946 22-247): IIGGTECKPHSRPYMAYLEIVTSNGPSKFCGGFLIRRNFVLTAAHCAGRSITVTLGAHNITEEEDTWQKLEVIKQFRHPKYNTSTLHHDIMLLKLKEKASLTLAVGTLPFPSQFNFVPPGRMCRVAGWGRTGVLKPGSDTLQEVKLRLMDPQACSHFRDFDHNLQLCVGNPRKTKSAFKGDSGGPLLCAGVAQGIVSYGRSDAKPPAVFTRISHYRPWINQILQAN
Method in brief: as §1

[7] = target: T4, Elastase (Sus scrofa, UniProt P00772); assay: Serine protease inhibition: elastase; format: biochemical, mammalian; settings: Table 8A, class symbols; read-out: IC50 Elastase
T4 construct: purchased Calbiochem 324682
Procedure: (§2) The effect of selected BLIs on the enzymatic activity of some common mammalian serine proteases was evaluated.
(§3) 50 μl of the diluted enzyme was mixed with 50 μl of inhibitor at various concentrations and 50 μl of corresponding buffer (Table 7). Reaction mixtures were incubated for 10 min at 37° C. Subsequently, 50 μl of corresponding substrate (Table 7) was added and absorbance or fluorescence was monitored for 30 min on SpectraMax M2 plate reader (Molecular Devices). 4-(2-Aminoethyl)benzenesulfonyl fluoride hydrochloride (AEBSF) and leupeptin were used as positive controls. Rates of reaction were calculated and presented relative to “no treatment” control.

[8] = target: SHV-12 (Klebsiella pneumoniae, UniProt P0AD64, E235K/G234S/L31Q); assay: Inhibition of nitrocefin cleavage by purified SHV-12; format: biochemical; settings: nitrocefin reporter substrate, purified enzyme; read-out: Ki (SHV-12, NCF)
Method in brief: (§4)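 Readout: nitrocefin hydrolysis, A490 recorded every 10 sec over 10 min. Enzyme and inhibitor (varied concentrations) preincubated 10 min, RT, in reaction buffer before substrate addition.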

[9] = target: T5, Dipeptidyl peptidase 7 (DPP7) (Homo sapiens, UniProt Q9UHL4); assay: Serine protease inhibition: DPP7; format: biochemical, mammalian; settings: Table 8B; read-out: IC50 DPP7
T5 construct: purchased R&D Systems 3438-SE
Procedure: as §2, §3

[10] = target: T6, Dipeptidyl peptidase 8 (DPP8) (Homo sapiens, UniProt Q6V1X1); assay: Serine protease inhibition: DPP8; format: biochemical, mammalian; settings: Table 8B; read-out: IC50 DPP8
T6 construct: purchased BPS Bioscience 80080
Method in brief: as §1

[11] = target: KPC-2 (Klebsiella pneumoniae, UniProt Q9F663); assay: Inhibition of nitrocefin cleavage by purified KPC-2; format: biochemical; settings: nitrocefin reporter substrate, purified enzyme; read-out: Ki (KPC-2, NCF)
Method in brief: as §4

[12] = target: T7, Thrombin (Homo sapiens, UniProt P00734); assay: Serine protease inhibition: thrombin; format: biochemical, mammalian; settings: Table 8A, class symbols; read-out: IC50 Thrombin
T7 construct: Thrombin; MPBio; 19491880; purchased MPBio 19491880
Method in brief: as §1

[13] = system: KP1004 (K-2); assay: Potentiation of aztreonam, strain KP1004; format: cell-based; settings: minimum BLI concentration inhibiting growth with 4 μg/mL aztreonam
[14] = system: ec308 (SHV-5); assay: Potentiation of aztreonam, strain ec308; format: cell-based; settings: minimum BLI concentration inhibiting growth with 4 μg/mL aztreonam
[15] = system: ECL1002; assay: Potentiation of aztreonam, strain ECL1002; format: cell-based; settings: minimum BLI concentration inhibiting growth with 4 μg/mL aztreonam
[16] = target: T8, CathepsinA (Homo sapiens, UniProt P10619); assay: Serine protease inhibition: cathepsin A; format: biochemical, mammalian; settings: Table 8B; read-out: IC50 CathepsinA
T8 construct: purchased R&D Systems 1049-SE
T8 sequence (P10619 29-480): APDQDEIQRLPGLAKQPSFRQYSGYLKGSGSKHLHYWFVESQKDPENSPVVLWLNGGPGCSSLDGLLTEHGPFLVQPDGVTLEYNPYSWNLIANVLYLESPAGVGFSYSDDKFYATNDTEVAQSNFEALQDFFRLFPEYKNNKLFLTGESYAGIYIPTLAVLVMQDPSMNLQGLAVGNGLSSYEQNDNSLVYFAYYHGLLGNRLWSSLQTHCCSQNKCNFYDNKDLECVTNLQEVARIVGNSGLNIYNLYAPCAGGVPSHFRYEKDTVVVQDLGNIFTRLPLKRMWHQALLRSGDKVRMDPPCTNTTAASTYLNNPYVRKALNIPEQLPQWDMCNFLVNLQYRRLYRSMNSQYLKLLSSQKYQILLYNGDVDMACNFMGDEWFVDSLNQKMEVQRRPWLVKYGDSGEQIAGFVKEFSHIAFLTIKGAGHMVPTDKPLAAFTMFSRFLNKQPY
Method in brief: as §1

[17] = system: ec302 (TEM-10); assay: Potentiation of aztreonam, strain ec302; format: cell-based

T6 sequence (Q6V1X1 whole entry): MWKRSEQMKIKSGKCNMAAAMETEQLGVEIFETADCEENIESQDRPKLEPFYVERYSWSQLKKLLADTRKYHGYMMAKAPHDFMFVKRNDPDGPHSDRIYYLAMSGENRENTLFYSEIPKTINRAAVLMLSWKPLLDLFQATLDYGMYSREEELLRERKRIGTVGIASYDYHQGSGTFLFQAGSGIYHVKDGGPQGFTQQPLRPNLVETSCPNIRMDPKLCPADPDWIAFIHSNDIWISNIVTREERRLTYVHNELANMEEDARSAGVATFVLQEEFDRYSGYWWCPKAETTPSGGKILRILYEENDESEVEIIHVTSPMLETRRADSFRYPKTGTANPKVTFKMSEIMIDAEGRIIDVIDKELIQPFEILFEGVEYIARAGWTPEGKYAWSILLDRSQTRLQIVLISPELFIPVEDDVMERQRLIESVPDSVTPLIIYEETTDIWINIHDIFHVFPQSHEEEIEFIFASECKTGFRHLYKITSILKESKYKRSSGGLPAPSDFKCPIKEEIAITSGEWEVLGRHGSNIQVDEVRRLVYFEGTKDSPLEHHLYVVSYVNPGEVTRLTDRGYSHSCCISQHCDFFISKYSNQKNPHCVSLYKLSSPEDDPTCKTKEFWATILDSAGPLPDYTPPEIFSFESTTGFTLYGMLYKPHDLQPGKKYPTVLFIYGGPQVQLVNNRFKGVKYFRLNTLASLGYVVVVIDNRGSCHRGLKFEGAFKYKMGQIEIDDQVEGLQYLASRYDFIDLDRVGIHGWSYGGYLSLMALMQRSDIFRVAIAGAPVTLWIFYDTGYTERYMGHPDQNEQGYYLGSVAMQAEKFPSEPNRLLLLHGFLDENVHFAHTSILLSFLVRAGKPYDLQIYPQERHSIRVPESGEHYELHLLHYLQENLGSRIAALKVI
T4 sequence (P00772 27-266): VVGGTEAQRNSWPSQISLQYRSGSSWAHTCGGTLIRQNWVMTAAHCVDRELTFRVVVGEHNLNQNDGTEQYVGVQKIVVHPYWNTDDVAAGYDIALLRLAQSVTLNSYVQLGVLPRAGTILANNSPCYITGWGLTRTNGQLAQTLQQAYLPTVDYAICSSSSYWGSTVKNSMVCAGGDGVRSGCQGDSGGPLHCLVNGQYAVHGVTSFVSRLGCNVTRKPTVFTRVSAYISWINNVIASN
KPC-2, sequence (Q9F663 25-293, looked up, species assumed): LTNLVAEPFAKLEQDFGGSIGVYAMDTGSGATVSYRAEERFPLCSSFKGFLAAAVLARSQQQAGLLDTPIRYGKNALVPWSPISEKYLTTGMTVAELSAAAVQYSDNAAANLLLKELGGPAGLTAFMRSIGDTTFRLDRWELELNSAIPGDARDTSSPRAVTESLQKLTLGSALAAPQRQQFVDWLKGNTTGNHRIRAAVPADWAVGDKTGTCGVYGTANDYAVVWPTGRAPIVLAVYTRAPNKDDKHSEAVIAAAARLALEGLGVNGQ
SHV-12, sequence (P0AD64 22-286 L31Q/G234S/E235K): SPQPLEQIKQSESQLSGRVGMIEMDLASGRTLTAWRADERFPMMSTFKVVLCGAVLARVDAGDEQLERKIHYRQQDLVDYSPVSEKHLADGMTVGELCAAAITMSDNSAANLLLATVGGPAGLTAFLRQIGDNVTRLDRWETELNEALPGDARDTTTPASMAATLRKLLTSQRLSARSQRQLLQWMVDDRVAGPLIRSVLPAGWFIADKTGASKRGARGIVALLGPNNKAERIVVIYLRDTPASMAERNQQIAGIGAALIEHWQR

| Compound | AZT MPC4 CTX-M-14 KP1005 [1] | PAM1154/KPC-2 Biapenem MPC64 [2] | TIG MPC4 SHV-5 ec308 [3] | IC50 [4] | IC50 [5] | IC50 [6] | IC50 [7] | Ki [8] | IC50 [9] | IC50 [10] | Ki [11] | IC50 [12] | AZT MPC4 K-2 KP1004 [13] | AZT MPC4 SHV-5 ec308 [14] | AZT MPC4 ECL1002 [15] | IC50 [16] | AZT MPC4 TEM-10 ec302 [17] |
| --- | --- | --- | --- | --- | --- | --- | --- | --- | --- | --- | --- | --- | --- | --- | --- | --- | --- |
| [N-]=[N+]=NCC(=O)N[C@H]1Cc2cccc(C(=O)O)c2OB1O [Compound 8, (R)-3-(2-azidoacetamido)-2-hydroxy-3,4-dihydro-2H-benzo[e][1,2]oxaborinine-8-carboxylic acid] | X (key: X = MIC of less than 1 μg/mL; Y = MIC of 1 μg/mL to 10 μg/mL; Z = MIC of greater than 10 μg/mL) | X (key: X = Less than 10; Y = 10 to 40; Z Greater than 40) | Y (Y = MIC of 1 μg/mL to 10 μg/mL) | > 800 µM | > 500 µM | > 800 µM | > 800 µM | < 1 nM | > 500 µM | > 500 µM | > 10 nM | > 800 µM | X (X = MIC of less than 1 μg/mL) | X (X = MIC of less than 1 μg/mL) | Y (Y = MIC of 1 μg/mL to 10 μg/mL) | 15 to 500 µM | Y (key: X = MIC of less than 1 μg/mL; Y = MIC of 1 μg/mL to 10 μg/mL; Z = MIC of greater than 10 μg/mL) |
| O=C(CSc1nncs1)N[C@H]1Cc2cccc(C(=O)O)c2OB1O [Compound 7, (R)-3-(2-(1,3,4-thiadiazol-2-ylthio)acetamido)-2-hydroxy-3,4-dihydro-2H-benzo[e][1,2]oxaborinine-8-carboxylic acid] | X (key: X = MIC of less than 1 μg/mL; Y = MIC of 1 μg/mL to 10 μg/mL; Z = MIC of greater than 10 μg/mL) | X (key: X = Less than 10; Y = 10 to 40; Z Greater than 40) | X (X = MIC of less than 1 μg/mL) | > 800 µM | > 500 µM | > 800 µM | > 800 µM | < 1 nM | > 500 µM | 15 to 500 µM | > 10 nM | > 800 µM | Y (Y = MIC of 1 μg/mL to 10 μg/mL) | X (X = MIC of less than 1 μg/mL) | Y (Y = MIC of 1 μg/mL to 10 μg/mL) | 15 to 500 µM | Y (key: X = MIC of less than 1 μg/mL; Y = MIC of 1 μg/mL to 10 μg/mL; Z = MIC of greater than 10 μg/mL) |
